Experimental data as given in US20240366728A1, “Treatment of Diabetes Mellitus” (Carmot Therapeutics Inc., priority 2023, published 2024).
“Also recorded” adds a separate entry of the source.

Legend:
[1] = tested on: C57BL/6J-DIO mice; assay: intraperitoneal glucose tolerance test in DIO mice; assay type: in vivo, mouse; conditions: DIO mice; 20 nmol/kg
[2] = tested on: lean C57BL/6J, GLP-1R+/+ and GLP-1R-/- mice; assay: single intracerebroventricular injection: food consumption and body weight; conditions: for food consumption and body weight (in words) / body weight decreased / body weight decreased compared to liraglutide / food consumption lowered compared to liraglutide / food consumption lowered compared to vehicle: ICV 0.025 nmol; for body weight decreased / body weight decreased compared to liraglutide / food consumption lowered compared to liraglutide / food consumption lowered compared to vehicle: lean C57BL/6J
[3] = tested on: GIPR+/+ and GIPR-/- mice; assay: intraperitoneal glucose tolerance test in GIPR+/+ and GIPR-/- mice; assay type: in vivo, mouse
[4] = Phase 1 first-in-human SAD/MAD study: pharmacokinetics; assay type: in vivo; conditions: for Tmax: median Tmax
Excerpt: This was a randomized, double-blind, placebo-controlled, dose escalation first-in-human (FIH) conducted from December 2018 to January 2020 at a study center in Victoria, Australia in accordance with principles of the Declaration of Helsinki (Ethical Principles for Medical Research Involving Human Subjects), and the NHMRC National Statement on Ethical Conduct in Human Research 2007 (updated 2018). (Registered on the Australian New Zealand Clinical Trials Registry [ANZCTR] under the identifier: ACTRN12618001988246).
Daily doses were given on Day 2 to Day 14. Cohort M1 was dosed with the highest dose level, determined based on the safety and PK data from the preceding Part 1 (SAD), and doses were decreased sequentially for Cohorts M2 and M3 (FIG. 46B).
Characterization of PK profile: PK parameters included maximum concentration (Cmax), time to maximum concentration (Tmax), area under the plasma concentration-time curve (AUC). Blood samples were collected within two hours prior to dosing for pre-dose samples and within ±10 minutes of the nominal/planned time post-dose. For Part 1 (SAD) participants, samples were taken at −2 to 0 hr (pre-dose), 1, 2, 3, 4, 6, 8, 12, 16, 20 hr (Day 1), 24, 30, 36 hr (Day 2), 48 hr (Day 3) and on Day 8 (±1 day, follow-up) post-dose. For Part 2 (MAD) participants, collection occurred −2 to 0 hr (pre-dose), 2, 3, 4, 6, 8, 12 hr (Day 1), 24 hr (Day 2), 48, 60 hr (Day 3), 72 hr (Day 4), 96 hr (Day 5). For Days 7, 8, 11 and 14, samples were taken −2 to 0 hr (pre-dose), 12 hr on Day 7, 2, 4, 6, 8, 12 hr on Day 14, 24, 36 hr on Day 15, 48 hr on Day 16 and on Day 21 (+1 day, follow-up) post-dose.
Estimates for PK parameters are tabulated and summarized by descriptive statistics (mean, standard deviation [SD], median, minimum, and maximum, coefficient of variation [CV %], geometric mean and geometric CV %). Dose proportionality was analyzed using the power model with log-transformed PK parameter values and log-transformed dose. The power model was used to estimate the slope parameter and the 90% confidence intervals (CIs) for the slope. Dose proportionality was generally concluded if the 90% CIs around the slope estimate include the value of 1.

[5] = target: human GLP-1R (Homo sapiens, UniProt P43220); assay: β-arrestin-2 recruitment (NanoBiT), human GLP-1R; assay type: cell-based; conditions: read-out: hGLP-1R β-arrestin-2 % Emax; Table 17
Experimental: To measure GLP-1R and GIPR-mediated β-arrestin recruitment, we utilized Promega's NanoBiT® technology or NanoLuc® Binary Technology. The NanoLuc luciferase is split into two subunits, called LgBiT and SmBIT, which are expressed in HEK293 cells as fusion proteins at the C-terminus of GLP-IR or GIPR and the N-terminus of β-arrestin-2. […] The next day, the media was removed and replaced with […] 1:100 dilution of Nano-Glo® Live Cell Substrate in Opti-MEM™ and equilibrated to room temperature for ten minutes. Background luminescence was measured before 10 nL compound was added using an ECHO Acoustic Liquid Handler.
To measure GLP-1R and GIPR-mediated β-arrestin recruitment, Promega's NanoBiT® technology or NanoLuc® Binary Technology were utilized. Both allow for the detection and quantification of protein: protein interactions in live cells (Samms et al., Trends Endocrinol Metab 31:410-21). The NanoLuc luciferase is split into two subunits, called LgBiT and SmBIT, which are expressed in HEK293 cells as fusion proteins at the C-terminus of GLP-1R or GIPR and the N-terminus of β-arrestin-2, respectively. […] Background luminescence was measured before 10 nL compound was added using an ECHO Acoustic Liquid Handler. Luminescence was measured at 1.5-minute intervals for 30 minutes.

Sequence of human GLP-1R (P43220 24-463): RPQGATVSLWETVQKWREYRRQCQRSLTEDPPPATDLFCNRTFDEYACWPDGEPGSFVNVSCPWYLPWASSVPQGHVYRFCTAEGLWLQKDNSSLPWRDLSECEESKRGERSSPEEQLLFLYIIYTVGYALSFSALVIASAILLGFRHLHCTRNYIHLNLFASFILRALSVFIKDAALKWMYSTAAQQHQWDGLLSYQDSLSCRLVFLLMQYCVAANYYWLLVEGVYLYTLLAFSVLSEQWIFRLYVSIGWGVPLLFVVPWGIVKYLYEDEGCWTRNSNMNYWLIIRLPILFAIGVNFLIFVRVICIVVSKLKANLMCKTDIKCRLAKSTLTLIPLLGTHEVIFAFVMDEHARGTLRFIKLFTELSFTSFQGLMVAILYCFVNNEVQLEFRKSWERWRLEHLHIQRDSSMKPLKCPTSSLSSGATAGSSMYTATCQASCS

Q: Which “glucose AUC 4 hours after administration (in words)” value [1] does the source give for CCCCCCCCCCCCCCCC(=O)N[C@@H](CCC(=O)NCCCC[C@H](NC(=O)[C@H](CO)NC(=O)[C@@H]1CCCN1C(=O)[C@@H]1CCCN1C(=O)[C@@H]1CCCN1C(=O)[C@H](C)NC(=O)CNC(=O)[C@H](CO)NC(=O)[C@H](CO)NC(=O)[C@@H]1CCCN1C(=O)CNC(=O)CNC(=O)[C@H](C)NC(=O)[C@H](CC(C)C)NC(=O)[C@H](CC(C)C)NC(=O)[C@H](Cc1c[nH]c2ccccc12)NC(=O)[C@H](CC(N)=O)NC(=O)[C@@H](NC(=O)[C@H](Cc1ccccc1)NC(=O)[C@H](CCC(=O)O)NC(=O)C(C)(C)NC(=O)[C@H](C)NC(=O)[C@H](C)NC(=O)[C@H](CCC(N)=O)NC(=O)[C@H](CCCCN)NC(=O)[C@H](CC(=O)O)NC(=O)[C@H](CC(C)C)NC(=O)[C@H](Cc1ccc(O)cc1)NC(=O)[C@@H](NC(=O)[C@H](CO)NC(=O)[C@H](Cc1ccc(O)cc1)NC(=O)[C@H](CC(=O)O)NC(=O)[C@H](CO)NC(=O)[C@@H](NC(=O)[C@H](Cc1ccccc1)NC(=O)[C@@H](NC(=O)CNC(=O)[C@H](CCC(=O)O)NC(=O)CSCC(=O)NCCN1C(=O)CSC1=O)[C@@H](C)O)[C@@H](C)O)[C@@H](C)CC)C(C)C)C(N)=O)C(=O)O [CT-859] here?
A: more efficacious than liraglutide in DIO mice

Q: What about the “food consumption and body weight vs liraglutide after ICV (in words)” value [2] of the same molecule?
A: decreased food consumption and body weight more than liraglutide

Q: And the “food consumption and body weight (in words)” value ([2]; GLP-1R+/+ mice)?
A: suppressed food consumption and reduced body weight

Q: And the “food consumption and body weight (in words)” value ([2]; GLP-1R-/- mice)?
A: no effect

Q: What about the “food consumption, body weight, blood glucose after ICV (in words)” value ([2]; GLP-1R-KO mice, 0.025 and 1 nmol/kg) of the same molecule?
A: did not have any significant effects on food consumption, body weight, or blood glucose

Q: And the “food consumption, body weight after ICV (in words)” value ([2]; GLP-1R-WT mice, 0.025 and 1 nmol/kg, up to 72 h)?
A: dose dependent reduction of cumulative food consumption

Q: What about the body weight decreased ([2]; 24 hours) of the same molecule?
A: 9%

Q: What about the “body weight decreased compared to liraglutide” value ([2]; 24 hours) of the same molecule?
A: 5%

Q: And the “food consumption lowered compared to liraglutide” value ([2]; 24 hours)?
A: 45%

Q: What about the “food consumption lowered compared to vehicle” value ([2]; 24 hours) of the same molecule?
A: 63%

Q: And the body weight decreased ([2]; 48 hours)?
A: 5%

Q: And the “body weight decreased compared to liraglutide” value ([2]; 48 hours)?
A: 5%

Q: And the “food consumption lowered compared to liraglutide” value ([2]; 48 hours)?
A: 27%

Q: And the “food consumption lowered compared to vehicle” value ([2]; 48 hours)?
A: 38%

Q: What about the “food intake and body weight vs equal dose of liraglutide (in words)” value ([2]; wildtype mice, ICV […], up to 19 h) of the same molecule?
A: significantly greater reduction of food intake and body weight

Q: And the “reduction in GLUC AUC in GTT” value ([3]; 20 nmol/kg, 4 h after dosing)?
A: 62%

Q: And the “glucose lowering (in words)” value ([3]; 20 and 200 nmol/kg)?
A: efficacious at lowering glucose levels

Q: And the “duration of glucose lowering (in words)” value ([3]; single 20 nmol/kg, ipGTT at 4, 24, 48 h)?
A: maintained its activity at 24 and 48 hours; also recorded: maintained significant reduction after 24 h and 48 h

Q: Which “plasma concentrations after 14 days of dosing vs dose (in words)” value ([4]; MAD 0.75-5.0 mg) does the source give for CCCCCCCCCCCCCCCC(=O)N[C@@H](CCC(=O)NCCCC[C@H](NC(=O)[C@H](CO)NC(=O)[C@@H]1CCCN1C(=O)[C@@H]1CCCN1C(=O)[C@@H]1CCCN1C(=O)[C@H](C)NC(=O)CNC(=O)[C@H](CO)NC(=O)[C@H](CO)NC(=O)[C@@H]1CCCN1C(=O)CNC(=O)CNC(=O)[C@H](C)NC(=O)[C@H](CC(C)C)NC(=O)[C@H](CC(C)C)NC(=O)[C@H](Cc1c[nH]c2ccccc12)NC(=O)[C@H](CC(N)=O)NC(=O)[C@@H](NC(=O)[C@H](Cc1ccccc1)NC(=O)[C@H](CCC(=O)O)NC(=O)C(C)(C)NC(=O)[C@H](C)NC(=O)[C@H](C)NC(=O)[C@H](CCC(N)=O)NC(=O)[C@H](CCCCN)NC(=O)[C@H](CC(=O)O)NC(=O)[C@H](CC(C)C)NC(=O)[C@H](Cc1ccc(O)cc1)NC(=O)[C@@H](NC(=O)[C@H](CO)NC(=O)[C@H](Cc1ccc(O)cc1)NC(=O)[C@H](CC(=O)O)NC(=O)[C@H](CO)NC(=O)[C@@H](NC(=O)[C@H](Cc1ccccc1)NC(=O)[C@@H](NC(=O)CNC(=O)[C@H](CCC(=O)O)NC(=O)CSCC(=O)NCCN1CCCCC1=O)[C@@H](C)O)[C@@H](C)O)[C@@H](C)CC)C(C)C)C(N)=O)C(=O)O [CT-868] here?
A: dose-related but not dose-proportional

Q: And the “plasma concentrations over repeated daily dosing (in words)” value ([4]; MAD 0.75-5.0 mg)?
A: reached a plateau after a few days of dosing

Q: And the Tmax ([4]; human, in vivo, 0.5 mg)?
A: 3 h

Q: And the AUC0-t ([4]; human, in vivo, 1.5 mg)?
A: 154.2 [45.7%] h*ng/ml

Q: What about the AUC(0-inf) ([4]; human, in vivo, 1.5 mg) of the same molecule?
A: 184.9 [47.6%] h*ng/ml

Q: What about the “Cmax, geometric mean (% CV)” value ([4]; human, in vivo, 1.5 mg) of the same molecule?
A: 5.62 [28.1%] ng/ml

Q: What about the half-life ([4]; human, in vivo, 1.5 mg) of the same molecule?
A: 77.3 h

Q: What about the “median Tmax” value ([4]; human, in vivo, 1.5 mg) of the same molecule?
A: 8.0 h

Q: And the AUC(0-inf) ([4]; human, in vivo, 1.5 mg, AUC0-inf)?
A: 209 ng·h/mL

Q: What about the AUC0-t ([4]; human, in vivo, 1.5 mg, AUC0-t) of the same molecule?
A: 167 ng·h/mL

Q: And the Cmax ([4]; human, in vivo, 1.5 mg, Cmax, geometric mean (% CV))?
A: 7.79 ng/mL

Q: What about the Tmax ([4]; human, in vivo, 1.5 mg) of the same molecule?
A: 6 h

Q: What about the Tmax ([4]; human, in vivo, 7.5 mg) of the same molecule?
A: 20 h

Q: What about the half-life ([4]; human, in vivo, 11 mg) of the same molecule?
A: 19.7 h

Q: And the Tmax ([4]; human, in vivo, predominant range)?
A: 3 to 12 h

Q: And the “mean Cmax vs dose (in words)” value ([4]; in vivo)?
A: increased with increasing dose level

Q: And the “time to maximum plasma concentrations after the first dose” value ([4]; in vivo)?
A: 48 to 96 h

Q: And the Emax [5]?
A: 1.5%
